The values below come from the supplement of paper PMC11368000.

The test system of one test is 1392 (donor line of iPSC-derived cardiomyocytes). The test is described as follows: POD (EC05) for increase in beat frequency (positive chronotrope) vs vehicle; higher = less potent (higher point of departure). As to conditions: exposure time: 90 min. As to the method:
(§1)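 Human iPSC-derived cardiomyocytes from 16 donors were exposed for 90 min at 37 °C to each PFAS at 0.1, 1, 10 and 100 µM in 0.5% DMSO, 384-well plates. Kinetic Ca2+ flux (FLIPR) and Hoechst nuclei counts were normalised to vehicle wells and fitted with a hierarchical Bayesian Hill model to give donor-specific PODs: EC05 for beat-rate increase or decrease and for decay-to-rise ratio increase (QT proxy), EC95 for peak-frequency loss (asystole), EC10 for total cell number loss. 0.03 µM is the lower bound.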
Compound `OCC(F)(F)C(F)(F)C(F)(F)C(F)(F)C(F)(F)C(F)(F)F` [6:1 Fluorotelomer alcohol] returned a POD vs vehicle of over 100 µM.

Compound `OCCC(F)(F)C(F)(F)C(F)(F)C(F)(F)C(F)(F)C(F)(F)F` [6:2 Fluorotelomer alcohol] registered a POD vs vehicle of over 100 µM.

Turning to `O=S(=O)(O)CCC(F)(F)C(F)(F)C(F)(F)C(F)(F)C(F)(F)C(F)(F)F` [6:2 Fluorotelomer sulfonic acid], the POD vs vehicle was over 100 µM.

`OCCC(F)(F)C(F)(F)C(F)(F)C(F)(F)C(F)(F)C(F)(F)C(F)(F)C(F)(F)F` [8:2 Fluorotelomer alcohol] registered a POD vs vehicle of over 100 µM.

Turning to `O=S(=O)(O)CCC(F)(F)C(F)(F)C(F)(F)C(F)(F)C(F)(F)C(F)(F)C(F)(F)C(F)(F)F` [8:2 Fluorotelomer sulfonic acid], the POD vs vehicle is over 100 µM.

Take `O=C(O)C(F)(F)C(F)(F)C(F)(F)C(F)(F)C(F)(F)C(F)(F)C(F)(F)C(F)(F)Cl` [9-Chloro-perfluorononanoic_acid]: the POD vs vehicle is over 100 µM.

Compound `O=P(O)(O)CCC(F)(F)C(F)(F)C(F)(F)C(F)(F)C(F)(F)C(F)(F)C(F)(F)C(F)(F)F` [((Perfluorooctyl)ethyl)phosphonic_acid] displayed a POD vs vehicle of over 100 µM.

`OCC(F)(F)C(F)(F)C(F)(F)C(F)(F)C(F)(F)C(F)F` [Dodecafluoroheptanol]: the POD vs vehicle is over 100 µM.

Compound `OCC(F)(F)C(F)(F)C(F)(F)F` [Heptafluorobutanol] showed a POD vs vehicle of over 100 µM.

Turning to `NC(=O)C(F)(F)C(F)(F)C(F)(F)F` [Heptafluorobutyramide], the POD vs vehicle is over 100 µM.

As to `OCC(F)(F)C(F)(F)C(F)(F)CO` [Hexafluoroamylene_glycol], the POD vs vehicle is over 100 µM.

In the case of `COC(=O)C(F)(F)C(F)(F)OC(F)(C(F)(F)F)C(F)(F)OC(F)=C(F)F` (configuration not stated) [Methyl_perfluoro(3-(1-ethenyloxypropan-2-yloxy)propanoate)], the POD vs vehicle was over 100 µM.

On to `NC(=O)C(F)(F)C(F)(F)C(F)(F)C(F)(F)F` [Nonafluoropentanamide], for which the POD vs vehicle is over 100 µM.

`NC(=O)C(F)(F)C(F)(F)C(F)(F)C(F)(F)C(N)=O` [Octafluoroadipamide] showed a POD vs vehicle of over 100 µM.

Compound `O=C(O)C(F)(F)C(F)(F)C(F)(F)C(F)(F)C(=O)O` [Octafluoroadipic_acid] had a POD vs vehicle of over 100 µM.

`O=C(O)C(F)(F)C(F)(F)C(F)(F)OC(F)(F)F` [Perfluoro(4-methoxybutanoic)_acid]: the POD vs vehicle was over 100 µM.

For the compound `O=C(O)C(F)(F)OC(F)(F)C(F)(F)OC(F)(F)C(F)(F)OC(F)(F)C(F)(F)C(F)(F)C(F)(F)F` [Perfluoro-3,6,9-trioxatridecanoic_acid], the POD vs vehicle is over 100 µM.

Turning to `O=C(O)C(F)(F)OC(F)(F)C(F)(F)OC(F)(F)F` [Perfluoro-3,6-dioxaheptanoic_acid], the POD vs vehicle was over 100 µM.

The compound `O=C(O)C(F)(F)OC(F)(F)C(F)(F)OC(F)(F)C(=O)O` [Perfluoro-3,6-dioxaoctane-1,8-dioic_acid] came in with a POD vs vehicle of 36 µM.

The test system of the next test is 30171 (donor line of iPSC-derived cardiomyocytes). The test is described as above. The following applies: exposure time: 90 min. As for the experimental part:
as §1
`OCC(F)(F)C(F)(F)C(F)(F)C(F)(F)C(F)(F)C(F)(F)F` [6:1 Fluorotelomer alcohol] yielded a POD vs vehicle of over 100 µM.

Turning to `OCCC(F)(F)C(F)(F)C(F)(F)C(F)(F)C(F)(F)C(F)(F)F` [6:2 Fluorotelomer alcohol], the POD vs vehicle is over 100 µM.

`O=S(=O)(O)CCC(F)(F)C(F)(F)C(F)(F)C(F)(F)C(F)(F)C(F)(F)F` [6:2 Fluorotelomer sulfonic acid] yielded a POD vs vehicle of over 100 µM.

Compound `OCCC(F)(F)C(F)(F)C(F)(F)C(F)(F)C(F)(F)C(F)(F)C(F)(F)C(F)(F)F` [8:2 Fluorotelomer alcohol] displayed a POD vs vehicle of over 100 µM.

`O=S(=O)(O)CCC(F)(F)C(F)(F)C(F)(F)C(F)(F)C(F)(F)C(F)(F)C(F)(F)C(F)(F)F` [8:2 Fluorotelomer sulfonic acid]: the POD vs vehicle was over 100 µM.

`O=C(O)C(F)(F)C(F)(F)C(F)(F)C(F)(F)C(F)(F)C(F)(F)C(F)(F)C(F)(F)Cl` [9-Chloro-perfluorononanoic_acid] came in with a POD vs vehicle of over 100 µM.

The compound `O=P(O)(O)CCC(F)(F)C(F)(F)C(F)(F)C(F)(F)C(F)(F)C(F)(F)C(F)(F)C(F)(F)F` [((Perfluorooctyl)ethyl)phosphonic_acid] gave a POD vs vehicle of over 100 µM.

Take `OCC(F)(F)C(F)(F)C(F)(F)C(F)(F)C(F)(F)C(F)F` [Dodecafluoroheptanol]: the POD vs vehicle was over 100 µM.

As to `OCC(F)(F)C(F)(F)C(F)(F)F` [Heptafluorobutanol], the POD vs vehicle is over 100 µM.

As for `NC(=O)C(F)(F)C(F)(F)C(F)(F)F` [Heptafluorobutyramide], the POD vs vehicle is over 100 µM.

`OCC(F)(F)C(F)(F)C(F)(F)CO` [Hexafluoroamylene_glycol] had a POD vs vehicle of over 100 µM.

The compound `COC(=O)C(F)(F)C(F)(F)OC(F)(C(F)(F)F)C(F)(F)OC(F)=C(F)F` (configuration not stated) [Methyl_perfluoro(3-(1-ethenyloxypropan-2-yloxy)propanoate)] returned a POD vs vehicle of over 100 µM.

`NC(=O)C(F)(F)C(F)(F)C(F)(F)C(F)(F)F` [Nonafluoropentanamide] came in with a POD vs vehicle of over 100 µM.

Compound `NC(=O)C(F)(F)C(F)(F)C(F)(F)C(F)(F)C(N)=O` [Octafluoroadipamide] gave a POD vs vehicle of over 100 µM.

For the compound `O=C(O)C(F)(F)C(F)(F)C(F)(F)C(F)(F)C(=O)O` [Octafluoroadipic_acid], the POD vs vehicle is over 100 µM.

Compound `O=C(O)C(F)(F)C(F)(F)C(F)(F)OC(F)(F)F` [Perfluoro(4-methoxybutanoic)_acid] yielded a POD vs vehicle of over 100 µM.

Consider `O=C(O)C(F)(F)OC(F)(F)C(F)(F)OC(F)(F)C(F)(F)OC(F)(F)C(F)(F)C(F)(F)C(F)(F)F` [Perfluoro-3,6,9-trioxatridecanoic_acid], for which the POD vs vehicle is over 100 µM.

The compound `O=C(O)C(F)(F)OC(F)(F)C(F)(F)OC(F)(F)F` [Perfluoro-3,6-dioxaheptanoic_acid] showed a POD vs vehicle of over 100 µM.

In turn, `O=C(O)C(F)(F)OC(F)(F)C(F)(F)OC(F)(F)C(=O)O` [Perfluoro-3,6-dioxaoctane-1,8-dioic_acid] came in with a POD vs vehicle of over 100 µM.

The test system of another test is 1083 (donor line of iPSC-derived cardiomyocytes). The test is described as above. As to conditions: exposure time: 90 min. As for the experimental part: as §1
Regarding `OCC(F)(F)C(F)(F)C(F)(F)C(F)(F)C(F)(F)C(F)(F)F` [6:1 Fluorotelomer alcohol], the POD vs vehicle was over 100 µM.

Compound `OCCC(F)(F)C(F)(F)C(F)(F)C(F)(F)C(F)(F)C(F)(F)F` [6:2 Fluorotelomer alcohol] showed a POD vs vehicle of over 100 µM.

In the case of `O=S(=O)(O)CCC(F)(F)C(F)(F)C(F)(F)C(F)(F)C(F)(F)C(F)(F)F` [6:2 Fluorotelomer sulfonic acid], the POD vs vehicle was over 100 µM.

Compound `OCCC(F)(F)C(F)(F)C(F)(F)C(F)(F)C(F)(F)C(F)(F)C(F)(F)C(F)(F)F` [8:2 Fluorotelomer alcohol] had a POD vs vehicle of over 100 µM.

`O=S(=O)(O)CCC(F)(F)C(F)(F)C(F)(F)C(F)(F)C(F)(F)C(F)(F)C(F)(F)C(F)(F)F` [8:2 Fluorotelomer sulfonic acid] displayed a POD vs vehicle of 27.8 µM.

Regarding `O=C(O)C(F)(F)C(F)(F)C(F)(F)C(F)(F)C(F)(F)C(F)(F)C(F)(F)C(F)(F)Cl` [9-Chloro-perfluorononanoic_acid], the POD vs vehicle is over 100 µM.

As to `O=P(O)(O)CCC(F)(F)C(F)(F)C(F)(F)C(F)(F)C(F)(F)C(F)(F)C(F)(F)C(F)(F)F` [((Perfluorooctyl)ethyl)phosphonic_acid], the POD vs vehicle is over 100 µM.

For the compound `OCC(F)(F)C(F)(F)C(F)(F)C(F)(F)C(F)(F)C(F)F` [Dodecafluoroheptanol], the POD vs vehicle is over 100 µM.

Regarding `OCC(F)(F)C(F)(F)C(F)(F)F` [Heptafluorobutanol], the POD vs vehicle was over 100 µM.
